Assay results reported in the NIST ThermoML archive (doi:10.1016/j.jct.2014.01.020).

Experiment: xn = mol fraction of the nth substance listed
Details: Liquid; for mass density: Vibrating tube method; for viscosity: 101 kPa, Concentric cylinders viscometry

C1CCCCC1 [cyclohexane] + CCCCO
mass density [kg/m3]
Details | x2 = 0.1 | x2 = 0.2 | x2 = 0.3003 | x2 = 0.4005 | x2 = 0.4997 | x2 = 0.6001 | x2 = 0.6999 | x2 = 0.7998 | x2 = 0.8999
293.15 K, 100 kPa | 779.5 | 781.4 | 783.9 | 786.6 | 789.7 | 793.1 | 796.8 | 800.7 | 805
293.15 K, 1000 kPa | 780.2 | 782 | 784.5 | 787.3 | 790.3 | 793.7 | 797.4 | 801.3 | 805.6
293.15 K, 2000 kPa | 781 | 782.9 | 785.3 | 788.1 | 791.1 | 794.5 | 798.2 | 802 | 806.3
293.15 K, 5000 kPa | 783.5 | 785.3 | 787.7 | 790.5 | 793.4 | 796.9 | 800.4 | 804.3 | 808.5
293.15 K, 10000 kPa | 787.3 | 789.2 | 791.6 | 794.3 | 797.2 | 800.5 | 804 | 807.9 | 812
293.15 K, 15000 kPa | 791.1 | 792.8 | 795.2 | 797.8 | 800.8 | 804 | 807.5 | 811.3 | 815.4
293.15 K, 20000 kPa | 794.5 | 796.3 | 798.6 | 801.3 | 804.2 | 807.4 | 810.8 | 814.5 | 818.6
303.15 K, 100 kPa | 770.1 | 772 | 774.6 | 777.6 | 780.9 | 784.5 | 788.5 | 792.3 | 797.1
303.15 K, 1000 kPa | 770.8 | 772.8 | 775.3 | 778.3 | 781.6 | 785.2 | 789.1 | 793.2 | 797.8
303.15 K, 2000 kPa | 771.7 | 773.7 | 776.2 | 779.2 | 782.5 | 786 | 789.9 | 794.1 | 798.6
303.15 K, 5000 kPa | 774.4 | 776.3 | 778.8 | 781.7 | 785 | 788.5 | 792.4 | 796.4 | 800.9
303.15 K, 10000 kPa | 778.5 | 780.4 | 782.9 | 785.7 | 788.9 | 792.5 | 796.2 | 800.2 | 804.6
303.15 K, 15000 kPa | 782.4 | 784.3 | 786.7 | 789.6 | 792.7 | 796.1 | 799.8 | 803.8 | 808.1
303.15 K, 20000 kPa | 786.2 | 788 | 790.4 | 793.2 | 796.3 | 799.6 | 803.3 | 807.2 | 811.5
303.15 K, 30000 kPa | 793.2 | 795 | 797.4 | 800.2 | 803.1 | 806.4 | 810 | 813.8 | 817.9
303.15 K, 40000 kPa | 799.6 | 801.4 | 803.8 | 806.5 | 809.4 | 812.6 | 816.1 | 819.8 | 823.8
313.15 K, 100 kPa | 760.4 | 762.5 | 765.2 | 768.4 | 771.8 | 775.7 | 779.8 | 784.3 | 789.1
313.15 K, 1000 kPa | 761.3 | 763.3 | 766.1 | 769.2 | 772.7 | 776.5 | 780.6 | 785 | 789.8
313.15 K, 2000 kPa | 762.2 | 764.3 | 767 | 770.1 | 773.6 | 777.4 | 781.5 | 785.9 | 790.7
313.15 K, 5000 kPa | 765.1 | 767.1 | 769.7 | 772.8 | 776.2 | 780 | 784.1 | 788.4 | 793.1
313.15 K, 10000 kPa | 769.5 | 771.5 | 774.1 | 777.1 | 780.5 | 784.1 | 788.1 | 792.4 | 797
313.15 K, 15000 kPa | 773.6 | 775.6 | 778.2 | 781.2 | 784.4 | 788 | 791.9 | 796.1 | 800.6
313.15 K, 20000 kPa | 777.7 | 779.5 | 782.1 | 785 | 788.3 | 791.8 | 795.6 | 799.8 | 804.2
313.15 K, 30000 kPa | 785.1 | 787 | 789.4 | 792.3 | 795.4 | 798.9 | 802.6 | 806.6 | 811
313.15 K, 40000 kPa | 791.9 | 793.7 | 796.2 | 799 | 802 | 805.3 | 809 | 812.9 | 817.1
313.15 K, 50000 kPa | 798.3 | 800.1 | 802.5 | 805.1 | 808.1 | 811.4 | 815 | 818.8 | 822.9
313.15 K, 60000 kPa | 804.2 | 806 | 808.4 | 810.9 | 813.8 | 817 | 820.5 | 824.4 | –

viscosity [mPa·s]
Details | x2 = 0 | x2 = 0.1073 | x2 = 0.1991 | x2 = 0.2998 | x2 = 0.4006 | x2 = 0.4997 | x2 = 0.6001 | x2 = 0.7001 | x2 = 0.7997 | x2 = 0.8996
293.15 K | 0.98 | 0.997 | 1.042 | 1.11 | 1.277 | 1.462 | 1.69 | 1.95 | 2.243 | 2.576
303.15 K | 0.824 | 0.837 | 0.87 | 0.924 | 1.038 | 1.17 | 1.337 | 1.528 | 1.747 | 1.998
313.15 K | 0.701 | 0.708 | 0.731 | 0.772 | 0.855 | 0.95 | 1.074 | 1.218 | 1.382 | 1.573
